Results: EP3095787A1, “[…] ACTIVE COMPOUNDS AS DAG-LIPASE INHIBITORS” (Universiteit Leiden, priority 2015, dated 2016)

Assays:
FAAH = molecular target: T1, FAAH (Mus musculus, UniProt O08914); experiment: Gel based competitive ABPP selectivity assay with TAMRA-FP in mouse brain proteome (FAAH band); format: biochemical; conditions: for FAAH ABPP (10 µm) % Eff.: 10 µM inhibitor, TAMRA-FP 500 nM, mouse brain proteome, vehicle set to 100%
T1 construct: For gel based ABPP experiments mouse brain proteome (2.0 mg/mL, 20 µL) was preincubated; from tissue; host or cells: mouse brain proteome
T1 sequence (O08914 1-579): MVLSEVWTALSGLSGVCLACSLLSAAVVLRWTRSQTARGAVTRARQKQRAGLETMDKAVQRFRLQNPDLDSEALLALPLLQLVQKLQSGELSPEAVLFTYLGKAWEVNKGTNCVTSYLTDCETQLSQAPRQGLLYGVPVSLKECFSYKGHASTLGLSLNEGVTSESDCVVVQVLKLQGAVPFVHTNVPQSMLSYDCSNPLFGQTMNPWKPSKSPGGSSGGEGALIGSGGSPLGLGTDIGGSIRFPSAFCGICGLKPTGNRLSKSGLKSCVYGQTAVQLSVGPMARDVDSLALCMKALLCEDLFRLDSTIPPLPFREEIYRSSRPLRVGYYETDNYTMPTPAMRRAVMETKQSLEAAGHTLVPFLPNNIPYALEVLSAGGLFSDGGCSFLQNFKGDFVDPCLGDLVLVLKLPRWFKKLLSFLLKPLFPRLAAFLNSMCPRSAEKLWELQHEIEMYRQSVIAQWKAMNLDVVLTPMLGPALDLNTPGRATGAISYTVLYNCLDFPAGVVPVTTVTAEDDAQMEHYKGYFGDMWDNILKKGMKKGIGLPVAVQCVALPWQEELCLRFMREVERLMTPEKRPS
Protocol: For gel based ABPP experiments mouse brain proteome (2.0 mg/mL, 20 µL) was preincubated for 30 min with vehicle (DMSO) or compound to be tested in 0.5 µL DMSO at rt. And subsequently treated with 500 nM (final concentration) TAMRA-FP (TAMRA-FP was bought at Thermo Fischer) for 15 minutes at rt. The reactions were quenched with 10 µL standard 3 x SDS page sample buffer. The samples were directly loaded and resolved on SDS page gel (10 % acrylamide). The gels were scanned with a ChemiDoc MP sytem (Biorad, Cy 3 settings, 605/50 filter) and analyzed using Image Lab 4.1.
The percentage effect on FAAH was determined by measuring the integrated optical intensity of the band corresponding to FAAH (∼ 63 kD for mouse) using Image lab software. This activity was corrected for the total protein loading per lane as determined by coomassie staining and imaging with a ChemiDoc™ MP sytem (Biorad) followed by determination of the integrated optical intensity per lane by using Image Lab 4.1 software. The intensity of the protein bands from the samples treated with vehicle was set to 100%. […] N/A means less than 50% probe displacement at 10 µM inhibitor concentration.

hDAGL-α = molecular target: T2, hDAGL-α (Homo sapiens, UniProt Q9Y4D2); experiment: Biochemical hDAGL-α activity assay (PNP-butyrate hydrolysis, 96 well plate); parameters: expressed in transfected cells; host or cells: HEK293T (transient), membrane fraction; conditions: PNP-butyrate 0.3 mM, membranes of HEK293T cells transfected with hDAGL-α
T2 sequence (Q9Y4D2 1-1042): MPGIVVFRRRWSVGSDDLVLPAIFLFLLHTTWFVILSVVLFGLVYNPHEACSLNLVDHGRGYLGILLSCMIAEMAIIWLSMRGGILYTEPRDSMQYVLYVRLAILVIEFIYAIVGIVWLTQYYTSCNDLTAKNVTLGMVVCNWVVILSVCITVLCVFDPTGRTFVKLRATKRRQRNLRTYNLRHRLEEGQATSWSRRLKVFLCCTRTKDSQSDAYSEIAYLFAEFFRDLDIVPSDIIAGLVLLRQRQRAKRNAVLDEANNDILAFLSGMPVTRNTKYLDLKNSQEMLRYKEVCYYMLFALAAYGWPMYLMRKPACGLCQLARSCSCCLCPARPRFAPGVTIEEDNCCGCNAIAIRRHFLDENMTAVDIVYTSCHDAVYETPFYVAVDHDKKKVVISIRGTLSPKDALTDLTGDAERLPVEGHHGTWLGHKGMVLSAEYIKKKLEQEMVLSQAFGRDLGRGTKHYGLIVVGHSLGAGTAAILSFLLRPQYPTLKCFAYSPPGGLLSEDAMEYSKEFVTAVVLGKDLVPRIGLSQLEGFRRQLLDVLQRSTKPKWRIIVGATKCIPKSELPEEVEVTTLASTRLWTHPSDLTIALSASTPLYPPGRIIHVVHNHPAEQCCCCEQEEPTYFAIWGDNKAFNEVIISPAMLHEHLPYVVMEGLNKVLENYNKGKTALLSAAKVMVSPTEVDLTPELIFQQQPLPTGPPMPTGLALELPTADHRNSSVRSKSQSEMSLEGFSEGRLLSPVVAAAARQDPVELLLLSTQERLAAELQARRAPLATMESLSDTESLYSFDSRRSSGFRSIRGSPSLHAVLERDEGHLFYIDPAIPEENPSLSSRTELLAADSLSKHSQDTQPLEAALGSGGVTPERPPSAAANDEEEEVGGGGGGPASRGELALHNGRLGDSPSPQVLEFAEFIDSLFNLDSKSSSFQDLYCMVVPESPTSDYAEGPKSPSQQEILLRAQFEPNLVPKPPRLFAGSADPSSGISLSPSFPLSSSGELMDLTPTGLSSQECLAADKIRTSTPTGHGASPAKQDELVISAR
Protocol: The biochemical hDAGL-α activity assay is based on the hydrolysis of para-nitrophenylbutyrate (PNP-butyrate) by membrane preparations from HEK293T cells transiently transfected with hDAGL-α. 200 µL reactions were performed in flat bottom Greiner 96-wells plates in a 50 mM pH 7.2 Hepes buffer. Membrane protein fractions from HEK293T cells transiently transfected with hDAGL-α (0.05 µg/µL final concentration) were used as hDAGL-α source. Compounds to be tested were introduced in 5 µL DMSO. The mixtures were incubated for 30 minutes before 5.0 µL 12 mM PNP-butyrate (final concentration 0.3 mM) in DMSO was added (final DMSO concentration 5.0%). Kinetics were followed immediately after addition of PNP-butyrate on a plate reader (TECAN GENios® microplate reader), by measuring the OD420 every 60 seconds, for 20 minutes at 37°C. The slope of the linear region from 5-15 minutes was determined, and all experiments were performed at N = 2, n = 2 for experimental measurements and N = 2, n = 4 for controls.
Data analysis: Z'-factor of each plate was determined for the validation of each experiment, using the following formula Z' = 1-3(σpc + σnc)/(µpc - µnc). The slope from 5-15 minutes of the positive control (pc: hDAGL-α, DMSO), and the negative control (nc: Mock, DMSO) was used. Plates were accepted for further analysis when Z' > 0.6. Kinetic measurements were corrected for the average absorption of the negative control (mock, DMSO). The slope of the linear region from 5-15 minutes was determined. The average, standard deviation (SD) and standard error of mean (SEM) were calculated and normalized to the corrected positive control. Data was exported to Graphpad Prism 5.0 for the calculation of the pIC50 using a nonlinear dose-response analysis.

Row | SMILES | FAAH ABPP (10 µm) % Eff. (FAAH) | DAGL-α Activity assay pIC50 (hDAGL-α) | FAAH labeling (FAAH; up to a concentration of 10 µM, n=3) | IC50 (hDAGL-α; read-out: DAGL-α Activity assay pIC50 (converted))
1 | O=C(CCCCCc1ccccc1)c1nc2ncccc2o1 [Compound 1, 1-(Oxazolo[4,5-b]pyridin-2-yl)-6-phenylhexan-1-one, reference compound] | 99% | 7.43 | – | –
2 | Cc1ccc(-c2cnc3nc(C(=O)CCCCCc4ccccc4)oc3c2)cc1 [Compound 25, 1-(6-(p-Tolyl)oxazolo[4,5-b]pyridin-2-yl)-6-phenylhexan-1-one] | N/A (N/A means less than 50% probe displacement at 10 µM inhibitor concentration) | – | did not block FAAH labeling | 3.02 nM
